Data published in patent US20020086281A1, “Detection of neurodegenerative diseases, in vitro screening assays” (priority 1998, published 2002).

What was measured:
[1] = system: sporadic AD lymphoblasts; assay: Microphysiometry (acidification rate) of sporadic AD lymphoblasts; type: cell-based, human; details: sporadic AD lymphoblasts compared with controls; FIG. 1A-1D
From the text: (§1) The rate at which cells excrete protons (the acidification rate) is closely linked to the rate at which they convert nutrients to energy. Because energy metabolism is coupled to ATP consumption, any event that perturbs ATP levels, such as receptor activation or calcium influx, causes a change in energy metabolism and, therefore, an alteration in proton excretion. In addition, receptor activation may also directly affect proton excretion by altering Na/H exchange. A typical microphysiometer, such as the Cytosensor™ (Molecular Devices), uses a silicon-based sensor to measure the rate of proton excretion from 10^4-10^6 cells. Cells are contained in a 3 μL flow chamber in aqueous contact with the pH-sensitive surface of a light-sensitive potentiometric sensor. Flow of medium (with low buffering capacity) and test compounds are determined by a series of microprocessor-controlled pumps. The extracellular acidification rate is determined by measuring the decrease in pH that occurs as acidic metabolites accumulate during brief halts in the flow of medium. The degree of stimulation of the basal acidification is calculated and plotted as a per cent of the basal acidification rate. The sensor takes a voltage measurement that is linearly related to pH. Typically, during a 30-60 sec halt in flow, pH will decrease less than 0.1 pH unit. Reproducible and robust responses are obtained to metabolic inhibitors, growth factors and ionophores in lymphoblast lines. […]
Alzheimer's disease: Lymphoblast cell lines were generated from blood samples obtained from patients followed in the Emory Alzheimer's Disease Center. All patients have been evaluated by detailed neurological and neuropsychometric examinations. […]
(§2) Lymphoblasts are suspended in agarose entrapment solution at a density of 5×10^5 cells/10 μl, then are plated onto chamber inserts, and allowed to solidify for 20 minutes. […] The rate of acidification is calculated as the slope of a linear least squares fit to the relation of pH versus time during the pump's off period. […]

[2] = system: PC12 cells transfected with two mutant forms of PS1; type: cell-based, Rat; details: PC12 cells transfected with mutant presenilin-1; FIG. 2A-2D
From the text: (§3) The rate at which cells excrete protons (the acidification rate) is closely linked to the rate at which they convert nutrients to energy. Because energy metabolism is coupled to ATP consumption, any event that perturbs ATP levels, such as receptor activation or calcium influx, causes a change in energy metabolism and, therefore, an alteration in proton excretion. In addition, receptor activation may also directly affect proton excretion by altering Na/H exchange. A typical microphysiometer, such as the Cytosensor™ (Molecular Devices), uses a silicon-based sensor to measure the rate of proton excretion from 10^4-10^6 cells. Cells are contained in a 3 μL flow chamber in aqueous contact with the pH-sensitive surface of a light-sensitive potentiometric sensor. Flow of medium (with low buffering capacity) and test compounds are determined by a series of microprocessor-controlled pumps. The extracellular acidification rate is determined by measuring the decrease in pH that occurs as acidic metabolites accumulate during brief halts in the flow of medium. The degree of stimulation of the basal acidification is calculated and plotted as a per cent of the basal acidification rate. The sensor takes a voltage measurement that is linearly related to pH. Typically, during a 30-60 sec halt in flow, pH will decrease less than 0.1 pH unit. Reproducible and robust responses are obtained to metabolic inhibitors, growth factors and ionophores in lymphoblast lines. Because virtually any manipulation alters proton excretion, it is relatively easy to determine the types of stimuli to which disease cell lines respond abnormally.
Rat adrenal pheochromocytoma PC 12 cells were stably transfected with PS1 cDNA cloned behind the CMV promoter in pcDNA3. See, e.g., Lah, J. J. et al., J. Neurosci. […]
as §2

[3] = system: PD lymphoblasts; assay: Microphysiometry of PD lymphoblasts; type: cell-based, human; details: PD lymphoblasts compared with controls; FIG. 5A-5D
From the text: as §3, with “abnormally. […]” for “abnormally.”
as §2

[4] = system: LHON 14459 mutation lymphoblasts; assay: Microphysiometry of LHON cells, 14459 mutation; type: cell-based, human; details: LHON 14459 mutation cells compared with control; FIG. 4A-4E
From the text: as §3
(§4) LHON: Previous work at Emory University has identified causative mitochondrial DNA mutations in LHON patients. Well-characterized LHON patient cell lines have been generated and banked. These cell lines have been characterized by molecular genetic, cellular respiration and enzymology studies. The patient cell lines were obtained from the Emory University Clinical Research Center (Emory University, Atlanta, Ga.).
(§5) Patient lymphocytes are immortalized using the technique of Neitzel H, Human Genetics 73:320-326 (1986). In brief, the lymphocytes are removed from the buffy coat layer following Histopaque density separation. […]
as §2

[5] = system: LHON 3460 mutation lymphoblasts; assay: Microphysiometry of LHON cells, 3460 mutation; type: cell-based, human; details: LHON 3460 mutation cells compared with control; FIG. 4A-4E
From the text: as §3, §4, §5, §2

[6] = system: HD fibroblasts; assay: Microphysiometry of HD cells; type: cell-based, human; details: HD cells compared with control cells; FIG. 3
[7] = system: control cells; assay: Microphysiometry of control cells, ionomycin response after rotenone; type: cell-based, human; details: control cells exposed to rotenone; FIG. 3
From the text: as §1, with “Cells are contained in a 3 μL flow chamber in aqueous contact with the pH-sensitive surface of a light-sensitive potentiometric sensor.” left out, “rate.” for “rate. The sensor takes a voltage measurement that is linearly related to pH. Typically, during a 30-60 sec halt in flow, pH will decrease less than 0.1 pH unit. Reproducible and robust responses are obtained to metabolic inhibitors, growth factors and ionophores in lymphoblast lines.”
as §2

| Molecule | microphysiometric response (stimulation of acidification rate) to the inhibitor [1] | microphysiometric response to the inhibitor [2] | microphysiometric response to the inhibitor [3] | microphysiometric response to the inhibitor or ionophore [4] | microphysiometric response to the inhibitor or ionophore [5] | microphysiometric response to the calcium ionophore [6] | reproduction of the HD-type altered response to ionomycin [7] |
| --- | --- | --- | --- | --- | --- | --- | --- |
| O=C(O)CC(=O)O [malonate] | do not differ substantially from controls | normal response | do not differ substantially from controls |  |  |  |  |
| antimycin-A | markedly blunted |  | do not differ substantially from controls | markedly depressed | markedly depressed |  |  |
| CN(C)C(=O)Nc1ccc(Cl)c(Cl)c1 [diuron] |  | similarly depressed response |  |  |  |  |  |
| C[C@H](CCC(=O)O)C[C@H](C)C[C@H](C)C(=O)/C=C(\O)[C@H](C)C[C@H](C)C/C=C/[C@@H](C)[C@@H](O)[C@@H](C)[C@@H](O)C[C@@H]1CC[C@@](C)([C@H]2CC[C@@](C)([C@@H](C)O)O2)O1 [ionomycin] |  |  |  | abnormal | abnormal | abnormal responses |  |
| O=C(CC(=O)C(F)(F)F)c1cccs1 [TTFA, Thenoyltrifluoroacetone] |  |  |  | no difference between control and patient lymphoblast responses | no difference between control and patient lymphoblast responses |  |  |
| C=C(C)[C@H]1Cc2c(ccc3c2O[C@@H]2COc4cc(OC)c(OC)cc4[C@@H]2C3=O)O1 [rotenone] | markedly blunted | similarly depressed response | markedly blunted | markedly depressed | virtually absent |  | can be reproduced in control cells |
